This is an account of results in the supplement of paper PMC10307832.

Common to all, as to assay: relative viability (nuclei count vs DMSO), 5 days (fraction); higher = more cells survive
Compound in test [1]: CC1=C(C(=NN1)C)CC2=C(C3=C(S2)N(C(=O)N(C3=O)C)CC(C)C)C(=O)N4C[C@@H](CO4)O + CC(=O)Nc1cccc(-n2c(=O)n(C3CC3)c(=O)c3c(Nc4ccc(I)cc4F)n(C)c(=O)c(C)c32)c1 [Trametinib] (partner 0.02 µM)
The essentials:
(§1)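 Lung cancer cell lines in 1536-well plates were dosed by pin tool the day after seeding, either with one drug alone or with a fixed anchor-drug dose plus five library-drug doses (not always all listed) in √10 steps. After 5 days, cells were fixed and their nuclei stained in one step (final 0.05% Triton X-100, 1% formaldehyde, 1 ug/ml Hoechst), then counted on 4× images. Relative viability is the nuclei count in treated wells divided by that in vehicle wells. Values are medians of duplicate plates.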

Compound in the test “IDH-C35 + Pemetrexed”: Cc1ccccc1C(C(=O)NC1CCCCC1)N(C(=O)Cn1ccnc1C)c1cccc(F)c1 [IDH-C35] + Nc1nc2[nH]cc(CCc3ccc(C(=O)N[C@@H](CCC(=O)O)C(=O)O)cc3)c2c(=O)[nH]1 [Pemetrexed] (partner 0.2 µM)
In a few lines:
as §1

Compound in the test “IDH-C35 + Luminespib”: Cc1ccccc1C(C(=O)NC1CCCCC1)N(C(=O)Cn1ccnc1C)c1cccc(F)c1 [IDH-C35] + CCNC(=O)c1noc(-c2cc(C(C)C)c(O)cc2O)c1-c1ccc(CN2CCOCC2)cc1 [Luminespib] (partner 0.01 µM)
In a few lines: as §1

Compound in the test “IDH-C35 + Bortezomib”: Cc1ccccc1C(C(=O)NC1CCCCC1)N(C(=O)Cn1ccnc1C)c1cccc(F)c1 [IDH-C35] + CC(C)C[C@H](NC(=O)[C@H](Cc1ccccc1)NC(=O)c1cnccn1)B(O)O [Bortezomib] (partner 0.002 µM)
The essentials: as §1

UMC-11: the relative viability in test [1] (first compound 0.0025 µM) came out at 0.842; in test [1] (first compound 0.007906 µM), 0.84; in test [1] (first compound 0.025 µM), 0.83; in test [1] (first compound 0.07906 µM), 0.677; in test [1] (first compound 0.25 µM) it was 0.993; with IDH-C35 + Pemetrexed (first compound 0.08 µM), 0.811. In addition, the relative viability was determined as 0.915 with IDH-C35 + Pemetrexed (first compound 0.253 µM); 0.804 in the test with IDH-C35 + Pemetrexed (first compound 0.8 µM); 0.853 with IDH-C35 + Pemetrexed (first compound 2.53 µM); 0.88 with IDH-C35 + Pemetrexed (first compound 8 µM); 1.01 in the test with IDH-C35 + Luminespib (first compound 0.08 µM); 1.03 in the test with IDH-C35 + Luminespib (first compound 0.253 µM). Besides, the relative viability worked out at 1.02 with IDH-C35 + Luminespib (first compound 0.8 µM); 1.08 with IDH-C35 + Luminespib (first compound 2.53 µM); 1.01 in the test with IDH-C35 + Luminespib (first compound 8 µM); 0.736 with IDH-C35 + Bortezomib (first compound 0.08 µM); 0.737 with IDH-C35 + Bortezomib (first compound 0.253 µM); 0.487 with IDH-C35 + Bortezomib (first compound 0.8 µM). The relative viability stood at 0.65 in the test with IDH-C35 + Bortezomib (first compound 2.53 µM) and 0.636 with IDH-C35 + Bortezomib (first compound 8 µM).
